The results in this text go back to article PMC10534422, “Divergence in Glyphosate Susceptibility between Steinchisma laxum Populations Involves a Pro106Ser Mutation” (Plants, 2023).

Read-outs that look alike come from different tables or passages of the source.

In experiment [1] the test system is T1, EPSPS (5-enolpyruvylshikimate-3-phosphate synthase).
T1 construct: native enzyme extracted from leaf tissue, not purified to homogeneity, activity per total soluble protein
The experiment in a line: EPSPS activity by phosphate release (EnzChek Phosphate Assay), leaf extract. Type of experiment: biochemical, Steinchisma laxum. The note with it: R population (Pro106Ser found in R plants); glyphosate 0-1000 µM; stated gain; read-out: I50.

For experiment [2] the test system is unchanged. Described as above. In kind it is biochemical, Steinchisma laxum. The settings on record: S population; glyphosate 0-1000 µM; read-out: I50.

For the compound `O=C(O)CNCP(=O)(O)O` [glyphosate, N-(phosphonomethyl) glycine], the figures for the IC50 in experiment [1] and in experiment [2] were 14.7 µM and 0.98 µM, respectively.
